Source: patent US8158389B2, “Products and methods for in vivo secretion of monatin” (priority 2005, dated 2012)

How the values were obtained:
Format in all cases: cell-based, Escherichia coli
E. coli MG1655 ΔAcrAB [1] = assay: Monatin excretion with 2.5 mM sodium decanoate, E. coli MG1655 ΔAcrAB strains with pUC19, robA, ramA or baeR (24, 30, 48 h)
Procedure: Conditions for the treatments included 250 rpm agitation throughout and 37° C. up to induction, then, 30° C. following induction. At 0.30-0.50 OD600 nm, induction of the plasmid genes was initiated. At induction, 1.0 mM IPTG, 0.5% L-arabinose, 0.5 mM pyridoxine hydrochloride, and 0.2 mLs of Balch's vitamins were added. Additions of 10 g/L L-tryptophan, 10 g/L sodium pyruvate, 0.04 mM pyridoxal-5′-phosphate (“PLP”) and 0.2% Tween® 20 (polyoxyethylene 20-sorbitan monolaurate) were made 3 hours following induction. Some treatments included 2.5 mM sodium decanoate addition at 3 hours following induction.
Conditions for the treatments included 250 rpm agitation throughout and 37° C. up to induction, then, 30° C. following induction. At an OD600 nm between 0.30-0.50, induction of the plasmid genes was initiated. At induction, 1.0 mM IPTG, 0.5% L-arabinose, 0.5 mM pyridoxine hydrochloride, and 0.2 mLs of Balch's vitamins were added. Additions of 10 g/L L-tryptophan, 10 g/L sodium pyruvate, 0.04 mM pyridoxal-5′-phosphate (“PLP”) and 0.2% Tween® 20 (polyoxyethylene 20-sorbitan monolaurate) were made 3 hours following induction. Some treatments included 2.5 mM sodium decanoate addition at 3 hours following induction.
Conditions for the treatments included 250 rpm agitation throughout and 37° C. up to induction, then, 30° C. following induction. At 0.35-0.38 OD600 nm, induction of the plasmid genes was initiated. At induction, 1.0 mM IPTG, 0.5% L-arabinose, 0.5 mM pyridoxine hydrochloride, and 0.2 mLs of Balch's vitamins were added. Additions of 10 g/L L-tryptophan, 10 g/L sodium pyruvate, 0.04 mM pyridoxal-5′-phosphate (“PLP”) and 0.2% Tween® 20 (polyoxyethylene 20-sorbitan monolaurate) were made 3.5 hours following induction. At 24 hours after inoculation, another 10 g/L increment of sodium pyruvate was added to each flask. Some treatments included 2.5 mM sodium decanoate addition at 3.5 hours following induction.

E. coli MG1655 ΔAcrAB [2] = assay: Monatin excretion with 2.5 mM sodium decanoate, E. coli MG1655 ΔAcrAB with or without marA (24, 30, 72 h); details: n = 2
E. coli BL21 DE3 = assay: Monatin excretion with sodium decanoate, E. coli BL21 DE3 with or without cysH deletion; details: 2.5 mM sodium decanoate, n = 2
Procedure: For inoculum, the E. coli strains BL21 DE3 aspC proA pET32 and BL21 DE3 ΔcysH: : aspCproA pET32 were grown overnight at 37° C. and 250 rpm in Luria-Bertani (“LB”) medium with 100 μg/mL ampicillin.
For the experimental treatments, Trp-1+glucose medium, a minimal medium that has been used for increased production of tryptophan in E. coli cells (Zeman et al. Folia Microbiol. 35:200-204, (1990)), was prepared as follows. To 800 mL nanopure water the following reagents were added: 2 g (NH4)2SO4 and 13.6 g KH2PO4. The pH was adjusted to 7.0, the volume was increased to 948 mL, and the medium was autoclaved. Following sterilization, 0.2 g MgSO4.7H2O, 0.01 g CaCl2.2H2O, and 0.5 mg FeSO4.7H2O were ad to the medium in a 1.8 mL volume followed by addition of 0.2 mL of Neidhardt's micronutrient solution. Neidhardt, F. C., et al., “Culture medium for Enterobacteria,” J. Bacteriol. 119:736-746 (1974). Neidhardt's medium includes (per liter): 0.18 g (NH4)6(MO7)24.4H2O, 1.24 g H3BO3, 0.36 g CoCl2.6H2O, 0.12 g CuSO4 (anhydrous), 0.8 g MnCl2.4H2O, and 0.14 g ZnSO4.7H2O. A 50% glucose solution was prepared separately and sterile-filtered. Forty mL of glucose solution and 10 mL of 1 M 3-Morpholinopropanesulfonic acid (“MOPS”) buffer were added to the base medium (950 mL) for a 1 L final volume.
Conditions for the treatments included 250 rpm agitation throughout and 37° C. up to induction, then, 30° C. following induction. At an OD600 nm between 0.44-0.52, induction of the plasmid genes was initiated. At induction, 1.0 mM IPTG, 0.5 mM pyridoxine hydrochloride, and 0.2 mL's of Balch's vitamins were added. Additions of 10 g/L L-tryptophan, 10 g/L sodium pyruvate, 0.04 mM pyridoxal-5′-phosphate (“PLP”) and 0.2% Tween® 20 (polyoxyethylene 20-sorbitan monolaurate) were made 3.0 hours following induction. At 3 hours after the initial feeding of pyruvate, another 10 g/L of sodium pyruvate was added to each flask. Some treatments included 2.5 mM sodium decanoate (or sterile, distilled water for the 0 mM decanoate treatment) addition at 3.0 hours following induction.

[3] = ΔAcrAB::aspC proA pProNde del robA pUC19, n = 2
[4] = ΔAcrAB::aspC proA pProNde del, ramA pUC19, n = 2
[5] = ΔAcrAB::aspC proA pProNdedel, pUC19 (control), n = 2
[6] = ΔacrAB AspC ProA pProNde del BaeR pUC19, n = 2
[7] = ΔAcrAB AspC ProA pProNde del pUC19 (control)
[8] = E. coli BL21 DE3 aspC proA pET32
[9] = E. coli BL21 DE3 ΔcysH::aspC proA pET32

Structure (SMILES): CCCCCCCCCC(=O)[O-].[Na+] [sodium decanoate]
- Monatin/dcw, 24 hours (E. coli MG1655 ΔAcrAB [1]; [3]): 45.7 mg/g
- Monatin/dcw, 30 hours (E. coli MG1655 ΔAcrAB [1]; [3]): 58.6 mg/g
- Monatin/dcw, 48 hours (E. coli MG1655 ΔAcrAB [1]; [3]): 81.7 mg/g
- Monatin/dcw, 24 hours (E. coli MG1655 ΔAcrAB [1]; [4]): 32.3 mg/g
- Monatin/dcw, 30 hours (E. coli MG1655 ΔAcrAB [1]; [4]): 41.7 mg/g
- Monatin/dcw, 48 hours (E. coli MG1655 ΔAcrAB [1]; [4]): 61.1 mg/g
- Monatin/dcw, 24 hours (E. coli MG1655 ΔAcrAB [1]; [5]): 10.7 mg/g
- Monatin/dcw, 30 hours (E. coli MG1655 ΔAcrAB [1]; [5]): 29.7 mg/g
- Monatin/dcw, 48 hours (E. coli MG1655 ΔAcrAB [1]; [5]): 39.3 mg/g
- Mean monatin per dry cell weight, 24 hours (E. coli MG1655 ΔAcrAB [1]; [6]): 34.4 mg/g
- Mean monatin per dry cell weight, 30 hours (E. coli MG1655 ΔAcrAB [1]; [6]): 85.0 mg/g
- Mean monatin per dry cell weight, 48 hours (E. coli MG1655 ΔAcrAB [1]; [6]): 137.3 mg/g
- Mean monatin per dry cell weight, 24 (E. coli MG1655 ΔAcrAB [2]; [7]): 22.2 mg/g
- Mean monatin per dry cell weight, 30 (E. coli MG1655 ΔAcrAB [2]; [7]): 20.6 mg/g
- Mean monatin per dry cell weight, 72 (E. coli MG1655 ΔAcrAB [2]; [7]): 62.6 mg/g
- Mean monatin per dry cell weight, 24 (E. coli MG1655 ΔAcrAB [2]; ΔAcrAB with marA insert): 54.6 mg/g
- Mean monatin per dry cell weight, 30 (E. coli MG1655 ΔAcrAB [2]; ΔAcrAB with marA insert): 56.0 mg/g
- Mean monatin per dry cell weight, 72 (E. coli MG1655 ΔAcrAB [2]; ΔAcrAB with marA insert): 209.0 mg/g
- Monatin/dry cell wt., 24 hours (E. coli BL21 DE3; [8]): 70.9 mg/g
- Monatin/dry cell wt., 30 hours (E. coli BL21 DE3; [8]): 75.0 mg/g
- Monatin/dry cell wt., 48 hours (E. coli BL21 DE3; [8]): 44.0 mg/g
- Monatin/dry cell wt., 24 hours (E. coli BL21 DE3; [9]): 115.0 mg/g
- Monatin/dry cell wt., 30 hours (E. coli BL21 DE3; [9]): 103.1 mg/g
- Monatin/dry cell wt., 48 hours (E. coli BL21 DE3; [9]): 73.3 mg/g
